By melting point is commonly meant the temperature, or range, at which the solid turns liquid.

`CCCCN(CCCC)S(=O)(=O)c1cc(O)c(N=Nc2c(C)nn(-c3ccccc3)c2O)c2ccccc12` yielded a melting point of 173 to 174 °C.

`N#Cc1ccc(Oc2cccc(N)c2)cc1C#N` returned a melting point of 171 to 172 °C.

`[N-]=[N+]=Nc1cc2ccccc2oc1=O` showed a melting point of 108 to 112 °C.

Regarding `Cc1c(CC(=O)O)c2cc(O)c(F)cc2n1C(=O)c1ccc(Cl)cc1`, the melting point lay within 193 to 195 °C.

`COc1ncc(F)c2nc(S(=O)(=O)Nc3c(F)cc(Cl)cc3F)nn12` displayed a melting point of 203 to 204 °C.

As to `COc1ccc(-c2coc3ccc(-c4nnc(SCc5ccc(OC)c(F)c5)o4)cc23)cc1`, the melting point was 162 to 163 °C.

Regarding `O=C1N[C@H]2CCN(C(=O)OCc3ccccc3)[C@H]2[C@H]1C1CC1` (relative stereo), the melting point was 141 to 149 °C.

For `O=S1(=O)NC(C2=CCCCC2)Nc2cc(Cl)ccc21` (stereo not given), the melting point was 252 to 254 °C.

The compound `COc1ccccc1NC(=O)c1ccc(C#N)cc1` had a melting point of 158 to 160 °C.

With `O=C(c1ccccc1)N1N=CCC1c1ccccc1` (stereo not given), the melting point was in the range of 105 to 106 °C.

In the case of `CC(C)(C)C(NC(=O)c1cccc(F)c1)Nc1c(Nc2cccnc2)c(=O)c1=O` (stereo not given), the melting point was 231 to 232 °C.

Turning to `CCOC(=O)c1cnn2c(-c3cccnc3)ccnc12`, the melting point was in the range of 170 to 171 °C.

The compound `Cc1cccc2c1nc(-c1c(F)cccc1F)n2S(=O)(=O)c1ccccc1` gave a melting point of 134 to 135 °C.

In turn, `CCCCCCCCCCC#Cc1c2ccccc2c2ccc3c(C#CCCCCCCCCCC)c4ccccc4c4ccc1c2c34` had a melting point of 129 to 130 °C.

The compound `CC(C)c1cc2ncccc2cc1Oc1cnc(NC(CO)CO)nc1N` had a melting point of 172 to 174 °C.

The compound `Cc1ccc(C(=O)Oc2ccccc2)cc1` showed a melting point of 74 to 76 °C.

In the case of `CCOC(=O)n1nc2c(c1N)CN(C(=O)N[C@H](CN(C)C)c1ccccc1)C2(C)C`, the melting point was in the range of 96 to 97 °C.

`CCCCCCc1cc2c(s1)-n1c(C)nnc1CN=C2c1ccccc1Cl` registered a melting point of 111 to 113 °C.

`CCCCOc1ccc(-c2ccc3c(c2)C=C(C(=O)O)CCS3(=O)=O)cc1` returned a melting point of 244 to 247 °C.

`CC(=O)Oc1cccc(CCNC(=O)/C=C/c2cccnc2)c1` came in with a melting point of 99 °C.

`COc1cc(F)c(F)cc1C=O` had a melting point of 74 °C.

Compound `CCC1SCCCN1C(=S)Nc1cccc(Cl)c1` (stereo not given) showed a melting point of 69 to 73 °C.

In turn, `CC(CN1CCN(c2cccc(C(F)(F)F)c2)CC1)C(O)c1ccc2c(c1)oc(=O)n2C` (stereo not given) returned a melting point of 92 °C.

In the case of `Cc1cc(Br)cnc1CCCNc1ncc(Cc2cccnc2)cc1O`, the melting point lay within 141 to 143 °C.

Consider `Cn1cnnc1C(c1ccc(Cl)cc1)c1ccc2c(c1)c(-c1cccc(Cl)c1)cc(=O)n2C` (stereo not given), for which the melting point amounted to 153 °C.

Turning to `COc1cc(-c2oc3ccccc3c(=O)c2C(=O)O)cc(OC)c1OC`, the melting point was in the range of 260 to 262 °C.

For `CCCCC(C#N)c1cccc(C(=O)c2cc3cc(C(=O)OC)sc3s2)c1` (stereo not given), the melting point worked out at 131 °C.

The compound `Cc1cc(-c2cc(C(F)(F)F)[nH]n2)c(F)cc1Cl` displayed a melting point of 159 °C.

`O=C(O)CCC(=O)c1ccc(SCCCBr)cc1` came in with a melting point of 91 to 94 °C.

Take `NC(=O)c1c(Cl)ccc(Br)c1Cl`: the melting point was in the range of 117 to 119 °C.

`CNc1ncnc(N2CCc3ccccc3CC2)c1[N+](=O)[O-]` came in with a melting point of 144 to 146 °C.

In turn, `CC1(C)c2ccccc2C(C)(C)C1(S)CC(=O)O` returned a melting point of 159 to 161 °C.

Compound `CC(C)(C)c1cc(C=Cc2n[nH]c(=S)o2)cc(C(C)(C)C)c1O` had a melting point of 210 °C.

`CCCC1CCC(O)CC1` (stereo not given) came in with a melting point of 109 °C.

`CN1CCC(ON2C(=O)c3ccccc3C2=O)CC1` registered a melting point of 90 °C.

For the compound `CCCCc1ccc(S(=O)(=O)Nc2cc(C)on2)s1`, the melting point lay in the range of 96.5 to 101 °C.

The compound `COC(=O)C1(Cl)CCC(=O)O1` (stereo not given) came in with a melting point of 50.5 to 51 °C.

`O=C(c1ccccc1)N1CCN(CCCN2C(=O)c3ccccc3C2=O)CC1` returned a melting point of 100 to 104 °C.

Regarding `O=C1CN2Cc3cc(C(=O)c4ccccc4)ccc3N=C2N1`, the melting point is greater than 300 °C.

Take `Nc1nc2ccccc2c2c1ncn2CCCCNC(=O)c1ccc(Oc2ccccc2)cc1`: the melting point lay within 90.5 to 91.5 °C.

In the case of `CCCc1nc2c(N)nc3cccnc3c2n1CCCC(=O)N1CCOCC1`, the melting point was 196 to 197 °C.

Compound `COc1cc(C#N)ccc1OCCCN1CCC(c2noc3cc(F)ccc23)CC1` had a melting point of 107 to 108 °C.

`O=c1[nH]c2ncc(-c3ccc(O)cc3)nc2n1CC1CCCCC1` displayed a melting point of 302 to 303 °C.

For `COC=C(C(=O)OC)N(C)c1cccc(-c2ccc(Cl)cc2)n1`, the melting point amounted to 135 °C.

On to `CCOCc1nc2c(N)nc3cc(O)ccc3c2n1CC(C)(C)NS(C)(=O)=O`, for which the melting point was in the range of 255 to 256 °C.

`COc1cc2c(cc1C(F)(F)F)N(C(=O)Nc1cc(-c3ccccc3)cc(-c3cccnc3)c1)CC2` yielded a melting point of 150 to 151 °C.

Compound `CCOC(=O)c1c(C)[nH]c2ccc(OC[C@@H](O)CN=[N+]=[N-])cc12` had a melting point of 75 to 77 °C.

On to `Cc1cc(C)c(CC(=O)O)cc1C`, for which the melting point fell in the range of 123 to 125 °C.

As to `O=C(CCCCl)Nc1nnc(-c2ccc(Br)cc2)s1`, the melting point lay in the range of 187 to 189 °C.

Regarding `CCc1cn(C(C)(C)C(=O)N(C)C)nc1-c1ccccc1Cl`, the melting point lay in the range of 102 to 104 °C.

`COC(=O)CNC(=O)NC(CSC(C)=O)Cc1ccccc1` (stereo not given) had a melting point of 102 °C.

With `CCOCCOC(=O)C(=O)Nc1nc(-c2ccc(OC)cc2)cs1`, the melting point lay in the range of 130 to 133 °C.

Compound `COC(=O)Nc1cc2c(=O)n(NS(C)(=O)=O)c(=O)[nH]c2cc1C(F)(F)F` had a melting point of 232 to 240 °C.

For `CC(C)OCc1nc2nccnc2c(=O)[nH]1`, the melting point fell in the range of 198 to 199 °C.

In turn, `CON=C(OC)C(=O)c1nccn1Cc1ccccc1` gave a melting point of 55 to 58 °C.

In turn, `COC(=O)c1ccc(Cn2c(=O)c(C)c3sc(C(=O)NCc4ccc(F)cc4)cn3c2=O)cc1OC` showed a melting point of 191 to 193 °C.

`CCSc1nsc(NC(=O)Oc2ccccc2)c1C#N` displayed a melting point of 223 to 225 °C.

On to `CNC(=O)c1ccc(-c2nn(Cc3ccccc3)c3ccccc23)o1`, for which the melting point was 182 to 183 °C.

For the compound `Cc1nc(C)n2c1CN=C(c1ccccc1F)c1cc(Cl)ccc1-2`, the melting point fell in the range of 178 to 180 °C.

For `COc1cccc2c1sn1c3ccccc3c(=O)cc21`, the melting point lay within 245 to 251 °C.

`CCN(CC)C(=O)SC1(C(=O)N(CC)CC)C=CC=NC1F` (stereo not given): the melting point lay within 87 to 88 °C.

`CCOC(=O)c1c(Cn2cncn2)nc2cc3c(cc2c1-c1ccc(OC)c(OC)c1)OCCO3` yielded a melting point of 138 to 140 °C.

As to `Cc1cc(CCC(=O)OCC(CO)(COC(=O)CCc2cc(C)c(O)c(C(C)(C)C)c2)COC(=O)CCc2cc(C)c(O)c(C(C)(C)C)c2)cc(C(C)(C)C)c1O`, the melting point lay within 40 to 50 °C.

As for `Nc1ccc2ccc(Oc3cccc(F)c3)nc2n1`, the melting point is 165 °C.

Compound `CCc1oc2ccc(Cl)cc2c1C(=O)c1ccc(Cl)c(S(N)(=O)=O)c1` came in with a melting point of 130 to 133 °C.

(Values after a melting point compilation (Tetko et al.; mined from patent text by program, amines drawn as free bases though some values may be those of a salt).)
